In general, Kd refers to a measure of binding affinity in units of concentration.

Where only a bound is given, the exact number is not on record here.

Human DDB1, sequence (Q16531 whole entry): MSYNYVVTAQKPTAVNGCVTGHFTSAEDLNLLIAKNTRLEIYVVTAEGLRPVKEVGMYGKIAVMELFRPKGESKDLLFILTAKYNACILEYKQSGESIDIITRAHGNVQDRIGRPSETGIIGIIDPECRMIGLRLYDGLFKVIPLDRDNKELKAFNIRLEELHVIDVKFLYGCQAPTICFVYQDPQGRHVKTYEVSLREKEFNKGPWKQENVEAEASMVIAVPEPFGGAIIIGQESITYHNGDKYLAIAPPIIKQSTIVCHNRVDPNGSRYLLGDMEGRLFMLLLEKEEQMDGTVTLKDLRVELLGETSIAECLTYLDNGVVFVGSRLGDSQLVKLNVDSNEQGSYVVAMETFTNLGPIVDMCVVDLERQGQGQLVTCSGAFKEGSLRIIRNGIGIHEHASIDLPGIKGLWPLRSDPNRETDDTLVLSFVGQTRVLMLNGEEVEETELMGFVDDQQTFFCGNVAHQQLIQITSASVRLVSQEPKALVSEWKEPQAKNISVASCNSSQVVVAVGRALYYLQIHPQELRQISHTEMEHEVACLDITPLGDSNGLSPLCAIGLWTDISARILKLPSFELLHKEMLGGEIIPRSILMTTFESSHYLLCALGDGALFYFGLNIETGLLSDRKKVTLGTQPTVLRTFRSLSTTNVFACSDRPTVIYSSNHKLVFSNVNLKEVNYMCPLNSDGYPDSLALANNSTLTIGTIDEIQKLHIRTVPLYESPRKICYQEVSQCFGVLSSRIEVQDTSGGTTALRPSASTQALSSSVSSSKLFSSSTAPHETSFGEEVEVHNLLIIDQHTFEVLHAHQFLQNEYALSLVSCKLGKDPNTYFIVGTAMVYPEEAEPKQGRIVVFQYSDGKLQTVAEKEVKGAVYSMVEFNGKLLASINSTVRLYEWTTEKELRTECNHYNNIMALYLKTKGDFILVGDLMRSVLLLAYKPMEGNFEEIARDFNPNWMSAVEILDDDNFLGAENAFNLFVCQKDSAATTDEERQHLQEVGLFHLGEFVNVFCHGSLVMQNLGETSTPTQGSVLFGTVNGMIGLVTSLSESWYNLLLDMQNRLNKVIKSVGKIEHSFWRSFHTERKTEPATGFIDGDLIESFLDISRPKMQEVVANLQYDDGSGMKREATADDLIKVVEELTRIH

This test has as its target Human DDB1 (Homo sapiens (Human), UniProt Q16531). The test is described as follows: Surface plasmon resonance (SPR) binding assay to immobilized His-DDB1. The following applies: SPR, steady state affinity model, 25° C.; read-out: Binding (DDB1 binder activities, Kd). The essentials: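 Baculovirus-expressed His-DDB1 (High5 cells) amine-coupled to 11,000–13,000 RU on a CM5 chip; compounds injected in multi-cycle format without regeneration at 25° C in HBS-EP pH 7.4 (120 s association/dissociation). Double-referenced, solvent-corrected data fit to steady-state affinity model for KD.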
In general terms: In SPR one partner is held on a chip, and binding of the other changes the refractive index at the surface.
For `O=C1CCCCCCN1c1ncc([N+](=O)[O-])s1` [B-101, 1-(5-Nitrothiazol-2-yl)azocan-2-one], the Kd was 20 to 100 µM.

As for `CCOc1ccccc1C(=O)N(C)c1ncc([N+](=O)[O-])s1` [B-102, 2-Ethoxy-N-methyl-N-(5-nitrothiazol-2-yl)benzamide], the Kd is less than 20 µM. Consider `CC(C)COc1ccccc1C(=O)N(C)c1ncc([N+](=O)[O-])s1` [B-103, 2-Isobutoxy-N-methyl-N-(5-nitrothiazol-2-yl)benzamide], for which the Kd was 20 to 100 µM. The figure for `CCCc1ccccc1C(=O)N(C)c1ncc([N+](=O)[O-])s1` [B-104, N-Methyl-N-(5-nitrothiazol-2-yl)-2-propylbenzamide] is 20 to 100 µM; for `CN(C(=O)c1ccccc1CCC(F)(F)F)c1ncc([N+](=O)[O-])s1` [B-105, N-Methyl-N-(5-nitrothiazol-2-yl)-2-(3,3,3-trifluoropropyl)benzamide] it is more than 100 µM; for `CC(C)Cc1ccccc1C(=O)N(C)c1ncc([N+](=O)[O-])s1` [B-106, 2-Isobutyl-N-methyl-N-(5-nitrothiazol-2-yl)benzamide] it is less than 20 µM. For the compound `CCCCNc1ccc(C(=O)N(C)c2ncc([N+](=O)[O-])s2)c(OCC)c1` [B-107, 4-(Butylamino)-2-ethoxy-N-methyl-N-(5-nitrothiazol-2-yl)benzamide], the dissociation constant Kd lay in the range of 20 to 100 µM.

Take `CCCCNc1ccc(C(=O)Nc2ncc([N+](=O)[O-])s2)c(Nc2ccccc2)c1` [B-108, 4-(Butylamino)-N-(5-nitrothiazol-2-yl)-2-(phenylamino)benzamide]: the dissociation constant Kd was 20 to 100 µM. For the compound `CCCCNc1ccc(C(=O)Nc2ncc([N+](=O)[O-])s2)c(C(C)C)c1` [B-109, 4-(Butylamino)-2-isopropyl-N-(5-nitrothiazol-2-yl)benzamide], the Kd was in the range of 20 to 100 µM.

For `CCCCNc1ccc(C(=O)Nc2ncc([N+](=O)[O-])s2)c(-c2ccccc2)c1` [B-110, 5-(Butylamino)-N-(5-nitrothiazol-2-yl)-[1,1′-biphenyl]-2-carboxamide], the equilibrium dissociation constant (Kd) is less than 20 µM. `CCCCNc1ccc(C(=O)Nc2nc(C)c([N+](=O)[O-])s2)c(-c2ccccc2)c1` [B-111, 5-(Butylamino)-N-(4-methyl-5-nitrothiazol-2-yl)-[1,1′-biphenyl]-2-carboxamide]: the Kd lay in the range of 20 to 100 µM. As to `CCCCNc1ccc(C(=O)Nc2nc(Cl)c([N+](=O)[O-])s2)c(-c2ccccc2)c1` [B-112, 5-(Butylamino)-N-(4-chloro-5-nitrothiazol-2-yl)-[1,1′-biphenyl]-2-carboxamide], the Kd was less than 20 µM.

With `CCCCNc1ccc(C(=O)Nc2nc(Br)c([N+](=O)[O-])s2)c(-c2ccccc2)c1` [B-113, N-(4-Bromo-5-nitrothiazol-2-yl)-5-(butylamino)-[1,1′-biphenyl]-2-carboxamide], the Kd was in the range of 20 to 100 µM. For the compound `CCCCNc1ccc(C(=O)Nc2nc(C(F)(F)F)c([N+](=O)[O-])s2)c(-c2ccccc2)c1` [B-114, 5-(Butylamino)-N-(5-nitro-4-(trifluoromethyl)thiazol-2-yl)-[1,1′-biphenyl]-2-carboxamide], the Kd was less than 20 µM.

Regarding `CCCCNc1ccc(C(=O)Nc2nc(C3CC3)c([N+](=O)[O-])s2)c(-c2ccccc2)c1` [B-115, 5-(Butylamino)-N-(4-cyclopropyl-5-nitrothiazol-2-yl)-[1,1′-biphenyl]-2-carboxamide], the dissociation constant Kd is more than 100 µM. On to `CCCCNc1ccc(C(=O)Nc2ncc(Br)s2)c(-c2ccccc2)c1` [B-117, N-(5-Bromothiazol-2-yl)-5-(butylamino)-[1,1′-biphenyl]-2-carboxamide], for which the Kd fell in the range of 20 to 100 µM. Consider `CCCCNc1ccc(C(=O)Nc2ncc(C(F)(F)F)s2)c(-c2ccccc2)c1` [B-118, 5-(Butylamino)-N-(5-(trifluoromethyl)thiazol-2-yl)-[1,1′-biphenyl]-2-carboxamide], for which the Kd was 20 to 100 µM. Take `CCCCNc1ccc(C(=O)Nc2ncc(C#N)s2)c(-c2ccccc2)c1` [B-119, 5-(Butylamino)-N-(5-cyanothiazol-2-yl)-[1,1′-biphenyl]-2-carboxamide]: the Kd lay within 20 to 100 µM. The figure for `CCCCNc1ccc(C(=O)Nc2ncc(-c3ccccc3)s2)c(-c2ccccc2)c1` [B-120, 5-(Butylamino)-N-(5-phenylthiazol-2-yl)-[1,1′-biphenyl]-2-carboxamide] is 20 to 100 µM; for `CC(=O)Nc1ccccc1C(=O)Nc1ccncc1` [B-121, 2-Acetamido-N-(pyridin-4-yl)benzamide] it is 20 to 100 µM. On to `CC(=O)Nc1ccccc1C(=O)Nc1cccnc1` [B-122, 2-Acetamido-N-(pyridin-3-yl)benzamide], for which the equilibrium dissociation constant (Kd) is more than 100 µM. In the case of `CC(=O)Nc1ccccc1C(=O)Nc1ccccn1` [B-123, 2-Acetamido-N-(pyridin-2-yl)benzamide], the Kd was less than 20 µM. As for `CC(=O)Nc1ccccc1C(=O)Nc1cccc([N+](=O)[O-])c1` [B-124, 2-Acetamido-N-(3-nitrophenyl)benzamide], the figure is less than 20 µM. In the case of `CC(=O)Nc1ccccc1C(=O)Nc1ccc([N+](=O)[O-])cc1` [B-125, 2-Acetamido-N-(4-nitrophenyl)benzamide], the dissociation constant (Kd) is less than 20 µM. As for `CC(=O)Nc1ccccc1C(=O)Nc1ccc(C#N)s1` [B-128, 2-Acetamido-N-(5-cyanothiophen-2-yl)benzamide], the Kd lay within 20 to 100 µM.

For `CC(=O)Nc1ccccc1C(=O)Nc1ccc(C(C)C)s1` [B-129, 2-Acetamido-N-(5-isopropylthiophen-2-yl)benzamide], the Kd lay in the range of 20 to 100 µM. With `CC(=O)Nc1ccccc1C(=O)Nc1ccc(-c2ccccc2)s1` [B-130, 2-Acetamido-N-(5-phenylthiophen-2-yl)benzamide], the Kd was more than 100 µM. For `CCCCNc1ccc(C(=O)Nc2nc(-c3ccccc3)c([N+](=O)[O-])s2)c(-c2ccccc2)c1` [B-131, 5-(Butylamino)-N-(5-nitro-4-phenylthiazol-2-yl)-[1,1′-biphenyl]-2-carboxamide], the dissociation constant Kd was less than 20 µM. The figure for `CCCCNc1ccc(C(=O)Nc2ccc([N+](=O)[O-])s2)c(C(C)C)c1` [B-134, 4-(Butylamino)-2-isopropyl-N-(5-nitrothiophen-2-yl)benzamide] is more than 100 µM; for `CCCCNc1ccc(C(=O)Nc2ccc([N+](=O)[O-])s2)c(-c2ccccc2)c1` [B-135, 5-(Butylamino)-N-(5-nitrothiophen-2-yl)-[1,1′-biphenyl]-2-carboxamide] it is 20 to 100 µM; for `Nc1nc(N2CCOCC2)nc2c1CCN(Cc1cccc3cccnc13)C2` [B-136, 2-morpholino-7-(quinolin-8-ylmethyl)-5,6,7,8-tetrahydropyrido[3,4-d]pyrimidin-4-amine] it is 20 to 100 µM. As for `c1ncc(Nc2nccc(C3CCCCN3)n2)cn1` (stereo not shown) [B-137, 4-(piperidin-2-yl)-N-(pyrimidin-5-yl)pyrimidin-2-amine], the figure is 20 to 100 µM; as for `CC(Nc1nc(-c2ccco2)nc2c1CCNCC2)c1nnc(N)s1` (stereo not shown) [B-138, 5-(1-((2-(furan-2-yl)-6,7,8,9-tetrahydro-5H-pyrimido[4,5-d]azepin-4-yl)amino)ethyl)-1,3,4-thiadiazol-2-amine], 20 to 100 µM; as for `CN(CCc1ccccc1)C1CCCN(C(=O)CCc2nc3ccccc3[nH]2)C1` (stereo not shown) [B-139, 3-(1H-benzo[d]imidazol-2-yl)-1-(3-(methyl(phenethyl)amino)piperidin-1-yl)propan-1-one], less than 20 µM. The figure for `O=C(Nc1cccc(N2CCOC2=O)c1)c1ccccc1C1CCCN1` (stereo not shown) [B-140, N-(3-(2-oxooxazolidin-3-yl)phenyl)-2-(pyrrolidin-2-yl)benzamide] is 20 to 100 µM. `CCc1nnc(CNC(=O)c2ccccc2C2CCNC2)s1` (stereo not shown) [B-141, N-((5-ethyl-1,3,4-thiadiazol-2-yl)methyl)-2-(pyrrolidin-3-yl)benzamide]: the Kd was in the range of 20 to 100 µM. For the compound `CC(C)C(=O)NCCC1CN(Cc2cccc3[nH]ccc23)Cc2ccnn21` (stereo not shown) [B-142, N-(2-(5-((1H-indol-4-yl)methyl)-4,5,6,7-tetrahydropyrazolo[1,5-a]pyrazin-7-yl)ethyl)isobutyramide], the Kd lay within 20 to 100 µM. The figure for `CNC(=O)c1ccc(-c2cccc(O)c2)nc1NCC1CC1` [B-143, 2-((cyclopropylmethyl)amino)-6-(3-hydroxyphenyl)-N-methylnicotinamide] is 20 to 100 µM; for `CNC(=O)CCCNC(=O)c1nnn2c1CN(C(=O)OCCCCCC(C)C)CC2` [B-144, 6-methylheptyl3-((4-(methylamino)-4-oxobutyl)carbamoyl)-6,7-dihydro-[1,2,3]triazolo[1,5-a]pyrazine-5(4H)-carboxylate] it is 20 to 100 µM; for `CCCNC(=O)c1cccc(C(=O)Nc2ncc([N+](=O)[O-])s2)c1NC(C)=O` [B-145, 2-Acetamido-N^1-(5-nitrothiazol-2-yl)-N^3-propylisophthalamide] it is 20 to 100 µM.

Regarding `CCCCNc1ccc(C)c(C(=O)Nc2ncc([N+](=O)[O-])s2)c1` [B-148, 5-(Butylamino)-2-methyl-N-(5-nitrothiazol-2-yl)benzamide], the Kd was in the range of 20 to 100 µM. As for `CCCCNc1ccc(NC(C)=O)c(C(=O)Nc2ncc([N+](=O)[O-])s2)c1` [B-149, 2-Acetamido-5-(butylamino)-N-(5-nitrothiazol-2-yl)benzamide], the figure is 20 to 100 µM; as for `Cc1cc(Cl)ccc1C(=O)Nc1ncc([N+](=O)[O-])s1` [B-150, 4-chloro-2-methyl-N-(5-nitrothiazol-2-yl)benzamide], 20 to 100 µM. With `Cc1cc(C#N)ccc1C(=O)Nc1ncc([N+](=O)[O-])s1` [B-151, 4-Cyano-2-methyl-N-(5-nitrothiazol-2-yl)benzamide], the Kd is more than 100 µM. Consider `Cc1cc(Br)ccc1C(=O)Nc1ncc([N+](=O)[O-])s1` [B-152, 4-Bromo-2-methyl-N-(5-nitrothiazol-2-yl)benzamide], for which the Kd is less than 20 µM. Turning to `Cc1cc(-c2ccccc2)ccc1C(=O)Nc1ncc([N+](=O)[O-])s1` [B-153, 3-Methyl-N-(5-nitrothiazol-2-yl)-[1,1′-biphenyl]-4-carboxamide], the Kd is 20 to 100 µM.

The values above are taken from patent publication US20240066136A1, “MODIFIED PROTEINS AND PROTEIN DEGRADERS” (Cullgen (Shanghai), Inc., priority 2020, published 2024).
